Source: BindingDB's records for doi:10.1021/jm960486n (Eli Lilly, 1997)

Key:
[1] = biological target: Phospholipase A2 group IB, pancreatic (Homo sapiens) (UniProt P04054); assay: Inhibitory activity against human pancreatic Phospholipase A2
[2] = biological target: Phospholipase A2, pancreatic group IB (Sus scrofa); assay: Inhibitory activity against porcine pancreatic Phospholipase A2

Sequence of Phospholipase A2 group IB, pancreatic (Homo sapiens) (P04054 whole entry, looked up): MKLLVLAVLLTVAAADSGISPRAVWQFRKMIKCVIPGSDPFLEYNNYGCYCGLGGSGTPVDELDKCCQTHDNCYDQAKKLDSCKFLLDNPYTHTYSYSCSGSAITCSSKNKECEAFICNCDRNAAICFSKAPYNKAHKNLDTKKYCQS

Compound | IC50 [1] [µM] | IC50 [2] [µM]
Cc1c(CC(N)=O)c2c(OCC(=O)O)cccc2n1Cc1ccccc1-c1ccccc1 [Sodium; (1-biphenyl-2-ylmethyl-3-carbamoylmethyl-2-methyl-1H-indol-4-yloxy)-acetate] | 4.09 | 0.014
Cc1c(CC(N)=O)c2cc(OCc3ccccc3C(=O)O)ccc2n1Cc1ccccc1 [2-(1-Benzyl-3-carbamoylmethyl-2-methyl-1H-indol-5-yloxymethyl)-benzoic acid] | 22.5 | 7.5
Cc1c(CC(N)=O)c2c(OCC(=O)O)cccc2n1Cc1cccc(Cl)c1 [Sodium; [3-carbamoylmethyl-1-(3-chloro-benzyl)-2-methyl-1H-indol-4-yloxy]-acetate] | 1.2 | 0.02

The next lines start with results.

IC50 [1] [µM] | Compound | IC50 [2] [µM]
6.2 | NC(=O)Cc1c(Br)n(Cc2ccccc2)c2ccc(OCCCP(=O)(O)O)cc12 [[3-(1-Benzyl-2-bromo-3-carbamoylmethyl-1H-indol-5-yloxy)-propyl]-phosphonic acid] | 2.2
15.9 | NC(=O)Cc1c(Br)n(Cc2ccccc2)c2ccc(OCCCC(=O)O)cc12 [4-(1-Benzyl-2-bromo-3-carbamoylmethyl-1H-indol-5-yloxy)-butyric acid] | 
